According to patent US10420772B2, “Animal and human anti-trypanosomonal and anti-leishmania agents” (Celgene Corporation, priority 2016, dated 2019):

Legend:
[1] = tested on: STIB 719/ILRAD 560 T. vivax (drug sensitive) strain; assay: Ex vivo Alamar Blue 48 hrs drug sensitivity assay for T. vivax; assay type: cell-based; settings: Trypanosoma vivax, STIB719; STIB 719/ILRAD 560 T. vivax bloodstream form, ex vivo, Alamar Blue, 48 hrs; read-out: T. vivax Act.
Procedure: Ex vivo Alamar Blue48 hrs drug sensitivity assay for T. vivax. Compounds were tested ex vivo for chemotherapeutic efficacy against the STIB 719/ILRAD 560 T. vivax (drug sensitive) strain, using an Alamar Blue assay. Test compounds were prepared as 10 mg/mL DMSO stocks for each assay run. Compounds were assayed in at least three separate, independent test runs and an 11-point dilution curve was used to determine the IC50 values. Bloodstream form trypanosomes were propagated and harvested from a highly parasitaemic mouse (via cardiac puncture) and were incubated with test compounds for 45 hrs at 37° C. in a humidified atmosphere containing 5% CO2, supported in HMI media containing 20% bovine serum. Thereafter, 10 μL of Resazurin dye (12.5 mg in 100 mL of phosphate buffered saline, Sigma-Aldrich, Buchs, Switzerland) were added for an additional 3 hrs. Plates were then read using a fluorescent plate reader (Spectramax, Gemini XS, Bucher Biotec, Basel, Switzerland) using an excitation wavelength of 536 nm and an emission wavelength of 588 nm. Data points were averaged to generate sigmoidal dose-response curves and IC50 values were determined using Softmax Pro 5.2 software.

[2] = tested on: IL3000 T. congolense (drug sensitive) strain; assay: In vitro Alamar Blue 72 hrs drug sensitivity assay for T. congolense; assay type: cell-based; settings: Trypanosoma congolense, IL3000 T. congolense bloodstream form, read-out: T. congo Act.
Procedure: In Vitro Alamar Blue 72 Hrs Drug Sensitivity Assay for T. Congolense. Compounds were tested in vitro for chemotherapeutic efficacy against the IL3000 T. congolense (drug sensitive) strain using an Alamar Blue assay. Test compounds were prepared as 10 mg/mL DMSO stocks for each assay run. Compounds were assayed in at least three separate, independent test runs and an 11-point dilution curve was used to determine the IC50 values. Bloodstream form trypanosomes were supported in HMI media containing 20% bovine serum and were incubated with test compounds for 69 hrs at 34° C. in a humidified atmosphere containing 5% CO2. Thereafter, 10 μL of Resazurin dye (12.5 mg in 100 mL of phosphate buffered saline, Sigma-Aldrich, Buchs, Switzerland) were added for an additional 3 hrs. Plates were then read using a fluorescent plate reader (Spectramax, Gemini XS, Bucher Biotec, Basel, Switzerland) using an excitation wavelength of 536 nm and an emission wavelength of 588 nm. Data points were averaged to generate sigmoidal dose-response curves and IC50 values were determined using Softmax Pro 5.2 software.

SMILES | IC50 [1] | IC50 [2]
CC(C)(C)Nc1ncc2nc(Nc3cccc(C(F)(F)F)c3)n([C@H]3CC[C@@H](N)CC3)c2n1 [A-29, 9-((1s,4s)-4-aminocyclohexyl)-N2-tert-butyl-N8-(3-(trifluoromethyl)phenyl)-9H-purine-2,8-diamine] | < 150 nM | < 150 nM
CC(C)(C)Nc1ncc2nc(Nc3cccc(C(F)(F)F)c3)n([C@H]3CC[C@H](N)CC3)c2n1 [A-30, 9-((1r,4r)-4-aminocyclohexyl)-N2-tert-butyl-N8-(3-(trifluoromethyl)phenyl)-9H-purine-2,8-diamine] | < 150 nM | < 150 nM
CC1(Nc2ncc3nc(Nc4ccc(C(F)(F)F)cc4)n([C@H]4CC[C@@H](CN)CC4)c3n2)CCOCC1 [A-31, 9-((1s,4s)-4-(aminomethyl)cyclohexyl)-N2-(4-methyltetrahydro-2H-pyran-4-yl)-N8-(4-(trifluoromethyl)phenyl)-9H-purine-2,8-diamine] | < 150 nM | 150 to 350 nM
CC1(Nc2ncc3nc(Nc4cccc(Cl)c4)n(-c4ccc(CN)cc4)c3n2)CCOCC1 [A-32, 9-(4-(aminomethyl)phenyl)-N8-(3-chlorophenyl)-N2-(4-methyltetrahydro-2H-pyran-4-yl)-9H-purine-2,8-diamine] | < 150 nM | 150 to 350 nM
CC1(Nc2ncc3nc(Nc4cncc(Cl)c4)n([C@H]4CC[C@@H](CN)CC4)c3n2)CCOCC1 [A-33, 9-((1s,4s)-4-(aminomethyl)cyclohexyl)-N8-(5-chloropyridin-3-yl)-N2-(4-methyltetrahydro-2H-pyran-4-yl)-9H-purine-2,8-diamine] | < 150 nM | 150 to 350 nM
CC1(Nc2ncc3nc(Nc4cccc(Cl)c4)n(C4CC(N)C4)c3n2)CCOCC1 (stereo not drawn) [A-35, 9-(3-aminocyclobutyl)-N8-(3-chlorophenyl)-N2-(4-methyltetrahydro-2H-pyran-4-yl)-9H-purine-2,8-diamine] | < 150 nM | < 150 nM
CC(C)(C)Nc1ncc2nc(Nc3ccc(Cl)c(Cl)c3)n(C3CC(N)C3)c2n1 (stereo not drawn) [A-39, 9-(3-aminocyclobutyl)-N2-tert-butyl-N8-(3,4-dichlorophenyl)-9H-purine-2,8-diamine] | 150 to 350 nM | 350 to 500 nM
CC1(Nc2ncc3nc(Nc4cccc(Cl)c4)n([C@H]4CC[C@@H](CN5CCOCC5)CC4)c3n2)CCOCC1 [A-41, N8-(3-chlorophenyl)-N2-(4-methyltetrahydro-2H-pyran-4-yl)-9-((1s,4s)-4-(morpholinomethyl)cyclohexyl)-9H-purine-2,8-diamine] | 350 to 500 nM | < 150 nM
CC1(Nc2ncc3nc(Nc4cc(C(F)(F)F)ccc4F)n([C@H]4CC[C@@H](CN)CC4)c3n2)CCOCC1 [A-42, 9-((1s,4s)-4-(aminomethyl)cyclohexyl)-N8-(2-fluoro-5-(trifluoromethyl)phenyl)-N2-(4-methyltetrahydro-2H-pyran-4-yl)-9H-purine-2,8-diamine] | < 150 nM | < 150 nM
CC1(Nc2ncc3nc(Nc4cccc(C(F)(F)F)n4)n([C@H]4CC[C@@H](CN)CC4)c3n2)CCOCC1 [A-45, 9-((1s,4s)-4-(aminomethyl)cyclohexyl)-N2-(4-methyltetrahydro-2H-pyran-4-yl)-N8-(6-(trifluoromethyl)pyridin-2-yl)-9H-purine-2,8-diamine] | 150 to 350 nM | 150 to 350 nM
CC(C)(C)Nc1ncc2nc(Nc3cc(Cl)cc(Cl)c3)n([C@H]3CC[C@@H](CN)CC3)c2n1 [A-48, 9-((1s,4s)-4-(aminomethyl)cyclohexyl)-N2-tert-butyl-N8-(3,5-dichlorophenyl)-9H-purine-2,8-diamine] | 350 to 500 nM | 150 to 350 nM
CC1(Nc2ncc3nc(Nc4cccc(Cl)c4)n([C@H]4CC[C@@H](CN)CC4)c3n2)CC1 [A-51, 9-((1s,4s)-4-(aminomethyl)cyclohexyl)-N8-(3-chlorophenyl)-N2-(1-methylcyclopropyl)-9H-purine-2,8-diamine] | < 150 nM | < 150 nM
CC(C)(C)Nc1ncc2nc(Nc3cccc(C#N)c3)n(C3CCC(N)CC3)c2n1 (stereo not drawn) [A-52, 3-(9-((1r,4r)-4-aminocyclohexyl)-2-(tert-butylamino)-9H-purin-8-ylamino)benzonitrile] | < 150 nM | 350 to 500 nM
CC(C)(C)Nc1ncc2nc(Nc3cc(Cl)cc(C(F)(F)F)c3)n(C3CCC(N)CC3)c2n1 (stereo not drawn) [A-53, 9-((1r,4r)-4-aminocyclohexyl)-N2-tert-butyl-N8-(3-chloro-5-(trifluoromethyl)phenyl)-9H-purine-2,8-diamine] | 150 to 350 nM | 150 to 350 nM
CC(C)(CO)Nc1ncc2nc(Nc3cccc(Cl)c3)n(C3CCC(CN)CC3)c2n1 (stereo not drawn) [A-54, 2-(9-((1s,4s)-4-(aminomethyl)cyclohexyl)-8-(3-chlorophenylamino)-9H-purin-2-ylamino)-2-methylpropan-1-ol] | < 150 nM | 150 to 350 nM
CC1(Nc2ncc3nc(Nc4cc(Cl)cc(C(F)(F)F)c4)n(C4CCC(CN)CC4)c3n2)CCC1 (stereo not drawn) [A-55, 9-((1s,4s)-4-(aminomethyl)cyclohexyl)-N8-(3-chloro-5-(trifluoromethyl)phenyl)-N2-(1-methylcyclobutyl)-9H-purine-2,8-diamine] | 350 to 500 nM | 150 to 350 nM
CNC[C@H]1CC[C@@H](n2c(Nc3cccc(C(F)(F)F)c3)nc3cnc(NC4(C)CCOCC4)nc32)CC1 [A-58, 9-((1s,4s)-4-((methylamino)methyl)cyclohexyl)-N2-(4-methyltetrahydro-2H-pyran-4-yl)-N8-(3-(trifluoromethyl)phenyl)-9H-purine-2,8-diamine] | < 150 nM | < 150 nM
CC1(Nc2ncc3nc(Nc4cc(C(F)(F)F)ccc4F)n(C4CCC(N)CC4)c3n2)CCOCC1 (stereo not drawn) [A-59, 9-(4-aminocyclohexyl)-N8-(2-fluoro-5-(trifluoromethyl)phenyl)-N2-(4-methyltetrahydro-2H-pyran-4-yl)-9H-purine-2,8-diamine] | < 150 nM | 150 to 350 nM
CN(C)CC1CCC(n2c(Nc3cccc(Cl)c3F)nc3cnc(NC(C)(C)C)nc32)CC1 (stereo not drawn) [A-60, N2-tert-butyl-N8-(3-chloro-2-fluorophenyl)-9-((1s,4s)-4-((dimethylamino)methyl)cyclohexyl)-9H-purine-2,8-diamine] | < 150 nM | < 150 nM
CC1(Nc2ncc3nc(Nc4cc(C(F)(F)F)ccc4F)n(C4CCC(CN)CC4)c3n2)CCC1 (stereo not drawn) [A-61, 9-((1s,4s)-4-(aminomethyl)cyclohexyl)-N8-(2-fluoro-5-(trifluoromethyl)phenyl)-N2-(1-methylcyclobutyl)-9H-purine-2,8-diamine] | < 150 nM | 150 to 350 nM
NC[C@H]1CC[C@@H](n2c(Nc3cccc(Cl)c3)nc3cnc(NC4CCOCC4)nc32)CC1 [B-1, 9-((1s,4s)-4-(aminomethyl)cyclohexyl)-N8-(3-chlorophenyl)-N2-(tetrahydro-2H-pyran-4-yl)-9H-purine-2,8-diamine] | 350 to 500 nM | 150 to 350 nM
NC1CCC(n2c(Nc3cccc(Cl)c3)nc3cnc(NC4CC4)nc32)CC1 (stereo not drawn) [B-2, 9-((1r,4r)-4-aminocyclohexyl)-N8-(3-chlorophenyl)-N2-cyclopropyl-9H-purine-2,8-diamine] | < 150 nM | 350 to 500 nM
NC1CCC(n2c(Nc3cccc(Cl)c3)nc3cnc(NCC4CC4)nc32)CC1 (stereo not drawn) [B-3, 9-((1r,4r)-4-aminocyclohexyl)-N8-(3-chlorophenyl)-N2-(cyclopropylmethyl)-9H-purine-2,8-diamine] | 350 to 500 nM | 350 to 500 nM
NC1CCC(n2c(Nc3cccc(Cl)c3)nc3cnc(NCC(F)(F)F)nc32)CC1 (stereo not drawn) [B-4, 9-((1r,4r)-4-aminocyclohexyl)-N8-(3-chlorophenyl)-N2-(2,2,2-trifluoroethyl)-9H-purine-2,8-diamine] | < 150 nM | 350 to 500 nM
CN(c1ncc2nc(Nc3cccc(Cl)c3)n([C@H]3CC[C@@H](CN)CC3)c2n1)C1CCOCC1 [B-5, 9-((1s,4s)-4-(aminomethyl)cyclohexyl)-N8-(3-chlorophenyl)-N2-methyl-N2-(tetrahydro-2H-pyran-4-yl)-9H-purine-2,8-diamine] | < 150 nM | 350 to 500 nM
OCC1CCC(n2c(Nc3cccc(Cl)c3)nc3cnc(NC4CCOCC4)nc32)CC1 (stereo not drawn) [B-6, ((1s,4s)-4-(8-(3-chlorophenylamino)-2-(tetrahydro-2H-pyran-4-ylamino)-9H-purin-9-yl)cyclohexyl)methanol] | 350 to 500 nM | 350 to 500 nM
CN(C)c1ncc2nc(Nc3cccc(Cl)c3)n(C3CCC(CN)CC3)c2n1 (stereo not drawn) [B-7, 9-((1s,4s)-4-(aminomethyl)cyclohexyl)-N8-(3-chlorophenyl)-N2,N2-dimethyl-9H-purine-2,8-diamine] | < 150 nM | 350 to 500 nM
